Results taken from patent US12559506B2, “Indazole based compounds and associated methods of use” (Arvinas Operations, Inc., priority 2021, dated 2026).
Where two headings read alike, the source gives them in different places.

Molecular target: T1, LRRK2 (endogenous, HiBit tagged) (Homo sapiens, UniProt Q5S007)
T1 construct: endogenous in cells; host or cells: HEK293 cells with HiBit knock-in at the endogenous LRRK2 locus, stably expressing firefly luciferase
Experiment: Endogenous LRRK2 degradation assay, endogenous gene C-terminally HiBit-tagged in HEK293 cells (Nano-Glo Dual Luciferase)
Assay type: cell-based
Outline: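 LRRK2-HiBit quantified via Nano-Glo Dual Luciferase in HEK293 knock-in cells co-expressing firefly luciferase, after 24 h exposure to compound (1 μM final top, 1:3, 11 points). Values normalised to DMSO median per plate and curve-fitted; Alamar Blue viability run alongside.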

[1] = endogenous HiBit-tagged LRRK2, HEK293 cells, 24 hours, read-out: **Endogenous WT Dmax (%)
[2] = endogenous HiBit-tagged LRRK2, HEK293 cells, 24 hours, read-out: *Endogenous WT DC50
[3] = endogenous HiBit-tagged LRRK2 in HEK293 cells, 24 hours treatment, read-out: Endogenous WT DC50
[4] = endogenous HiBit-tagged LRRK2 in HEK293 cells, 24 hours treatment, read-out: Endogenous WT Dmax
[5] = endogenous HiBit-tagged LRRK2 in HEK293 cells, 24 hours treatment, read-out: **Endogenous WT Dmax (%)
[6] = endogenous HiBit-tagged LRRK2 in HEK293 cells, 24 hours treatment, read-out: *Endogenous WT DC50

T1 sequence (Q5S007 whole entry): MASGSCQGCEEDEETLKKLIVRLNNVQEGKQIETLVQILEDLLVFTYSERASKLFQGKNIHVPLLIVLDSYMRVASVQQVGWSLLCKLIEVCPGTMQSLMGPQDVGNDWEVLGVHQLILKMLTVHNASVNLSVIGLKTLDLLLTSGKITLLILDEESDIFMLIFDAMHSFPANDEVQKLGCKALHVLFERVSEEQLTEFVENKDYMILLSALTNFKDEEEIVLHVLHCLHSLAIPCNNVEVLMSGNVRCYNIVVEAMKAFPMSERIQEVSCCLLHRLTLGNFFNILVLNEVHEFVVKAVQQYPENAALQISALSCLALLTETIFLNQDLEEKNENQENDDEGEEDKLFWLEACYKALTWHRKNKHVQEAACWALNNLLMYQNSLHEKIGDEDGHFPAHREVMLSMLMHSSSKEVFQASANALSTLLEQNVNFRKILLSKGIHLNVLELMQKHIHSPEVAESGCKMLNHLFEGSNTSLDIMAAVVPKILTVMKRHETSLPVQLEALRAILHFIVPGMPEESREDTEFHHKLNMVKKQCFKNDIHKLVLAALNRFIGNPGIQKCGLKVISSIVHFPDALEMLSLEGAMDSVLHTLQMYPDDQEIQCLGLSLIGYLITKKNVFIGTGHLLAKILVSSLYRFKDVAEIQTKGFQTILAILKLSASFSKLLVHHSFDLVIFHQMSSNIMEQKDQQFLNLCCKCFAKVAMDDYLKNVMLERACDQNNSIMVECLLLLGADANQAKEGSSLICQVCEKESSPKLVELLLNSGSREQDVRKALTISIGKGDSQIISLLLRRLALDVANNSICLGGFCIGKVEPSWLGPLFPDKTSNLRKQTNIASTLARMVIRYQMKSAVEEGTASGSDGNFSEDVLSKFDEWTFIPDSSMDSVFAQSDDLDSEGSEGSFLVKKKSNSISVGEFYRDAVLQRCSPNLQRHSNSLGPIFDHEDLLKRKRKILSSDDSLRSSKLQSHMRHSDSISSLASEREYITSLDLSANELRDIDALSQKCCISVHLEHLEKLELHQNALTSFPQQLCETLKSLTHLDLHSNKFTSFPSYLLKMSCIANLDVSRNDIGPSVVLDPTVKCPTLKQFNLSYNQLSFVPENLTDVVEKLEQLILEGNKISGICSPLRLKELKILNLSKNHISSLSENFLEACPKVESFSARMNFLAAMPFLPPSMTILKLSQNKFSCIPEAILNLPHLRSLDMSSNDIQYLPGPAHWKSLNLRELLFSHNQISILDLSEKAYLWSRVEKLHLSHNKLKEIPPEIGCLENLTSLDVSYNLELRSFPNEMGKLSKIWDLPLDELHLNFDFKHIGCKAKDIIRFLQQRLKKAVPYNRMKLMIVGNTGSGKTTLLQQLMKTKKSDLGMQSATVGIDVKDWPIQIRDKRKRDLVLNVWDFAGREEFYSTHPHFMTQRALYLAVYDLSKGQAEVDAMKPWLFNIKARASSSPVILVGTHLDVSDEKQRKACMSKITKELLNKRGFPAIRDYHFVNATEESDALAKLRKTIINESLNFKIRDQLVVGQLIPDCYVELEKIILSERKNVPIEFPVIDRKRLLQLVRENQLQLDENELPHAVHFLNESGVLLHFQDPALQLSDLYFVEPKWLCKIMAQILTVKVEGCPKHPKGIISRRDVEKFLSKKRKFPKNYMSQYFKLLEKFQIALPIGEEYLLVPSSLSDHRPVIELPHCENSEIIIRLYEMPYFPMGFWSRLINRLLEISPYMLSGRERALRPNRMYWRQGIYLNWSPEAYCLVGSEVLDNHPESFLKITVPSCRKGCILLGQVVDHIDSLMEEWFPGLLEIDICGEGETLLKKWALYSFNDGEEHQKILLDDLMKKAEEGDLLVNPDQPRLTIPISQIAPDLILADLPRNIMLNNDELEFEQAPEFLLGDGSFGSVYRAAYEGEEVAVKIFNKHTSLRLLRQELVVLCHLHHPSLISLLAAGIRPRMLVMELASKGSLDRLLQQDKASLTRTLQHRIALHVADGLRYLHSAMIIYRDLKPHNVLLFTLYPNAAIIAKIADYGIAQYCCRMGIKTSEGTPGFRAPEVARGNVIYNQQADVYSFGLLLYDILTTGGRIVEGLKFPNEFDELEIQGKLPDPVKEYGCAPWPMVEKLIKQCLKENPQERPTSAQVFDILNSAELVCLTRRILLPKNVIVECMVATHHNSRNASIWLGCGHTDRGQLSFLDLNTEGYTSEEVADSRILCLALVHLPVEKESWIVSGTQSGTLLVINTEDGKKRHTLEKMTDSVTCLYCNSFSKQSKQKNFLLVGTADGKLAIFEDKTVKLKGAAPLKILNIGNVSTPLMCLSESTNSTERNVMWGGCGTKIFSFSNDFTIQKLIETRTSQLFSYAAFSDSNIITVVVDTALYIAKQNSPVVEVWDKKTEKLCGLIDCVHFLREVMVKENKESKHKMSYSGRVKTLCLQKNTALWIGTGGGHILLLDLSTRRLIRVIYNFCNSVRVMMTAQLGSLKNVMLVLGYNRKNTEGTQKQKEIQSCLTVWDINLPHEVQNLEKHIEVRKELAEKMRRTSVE

Row | DC50 [3] | Dmax [4] | Dmax [5] | DC50 [6] | Structure (SMILES) | further results
1 | – | – | 50 to 70% | < 10 nM | CC1(Oc2cc3c(-c4cc(N5CCC(CN6CCN(CC7CCN(c8ccc9c(c8F)CN(C8CCC(=O)NC8=O)C9=O)CC7)CC6(C)C)CC5)ncn4)n[nH]c3cc2F)CC1 (stereo not shown) [Compound 274, 3-{4-fluoro-5-[4-({4-[(1-{6-[6-fluoro-5-(1-methylcyclopropoxy)-1H-indazol-3-yl]pyrimidin-4-yl}piperidin-4-yl)methyl]-3,3-dimethylpiperazin-1-yl}methyl)piperidin-1-yl]-1-oxo-2,3-dihydro-1H-isoindol-2-yl}piperidine-2,6-dione] | –
2 | 10 to 50 nM | 50 to 70% | – | – | COc1c(N2CCC(O[C@H]3CC[C@H](CN4CCN(c5cc(-c6n[nH]c7ccc(OC8(C)CC8)cc67)ncn5)CC4(C)C)CC3)CC2)ccc2c1CN(C1CCC(=O)NC1=O)C2=O (stereo partly shown) [Compound 382, 3-[4-methoxy-1-oxo-5-(4-{[(1r,4r)-4-[(2,2-dimethyl-4-{6-[5-(1-methylcyclopropoxy)-1H-indazol-3-yl]pyrimidin-4-yl}piperazin-1-yl)methyl]cyclohexyl]oxy}piperidin-1-yl)-2,3-dihydro-1H-isoindol-2-yl]piperidine-2,6-dione] | –
3 | – | – | 50 to 70% | < 10 nM | C[C@H]1CN(c2ccc3c(c2F)CN(C2CCC(=O)NC2=O)C3=O)CCN1C[C@H]1CC[C@H](OC2CCN(c3cc(-c4n[nH]c5ccc(OC6(C)CC6)cc45)ncn3)CC2)CC1 (stereo partly drawn) [Compound 346, 3-{4-fluoro-5-[(3S)-3-methyl-4-{[(1r,4r)-4-[(1-{6-[5-(1-methylcyclopropoxy)-1H-indazol-3-yl]pyrimidin-4-yl}piperidin-4-yl)oxy]cyclohexyl]methyl}piperazin-1-yl]-1-oxo-2,3-dihydro-1H-isoindol-2-yl}piperidine-2,6-dione] | –
4 | – | – | 50 to 70% | < 10 nM | CC1(Oc2ccc3[nH]nc(-c4cc(N5CCN(C[C@@H]6CC[C@@H](CN7CCN(c8ccc9c(c8F)CN(C8CCC(=O)NC8=O)C9=O)CC7)OC6)CC5)ncn4)c3c2)CC1 (single isomer, unassigned) [Compound 305] | –

Continued, compound first:

Row | Structure (SMILES) | DC50 [3] | Dmax [4] | Dmax [5] | DC50 [6] | further results
5 | CC1(Oc2ccc3n[nH]c(-c4cc(N5CCN(CC6(F)CCN(CC7CCN(c8cc9c(cc8F)C(=O)N(C8CCC(=O)NC8=O)C9)CC7)CC6)CC5)ncn4)c3c2)CC1 (stereo not shown) [Compound 183, 3-[6-fluoro-5-[4-[[4-fluoro-4-[[4-[6-[5-(1-methylcyclopropoxy)-2H-indazol-3-yl]pyrimidin-4-yl]piperazin-1-yl]methyl]-1-piperidyl]methyl]-1-piperidyl]-1-oxo-isoindolin-2-yl]piperidine-2,6-dione] | – | – | – | – | Dmax [1]: ≥ 70%; DC50 [2]: < 10 nM
6 | CC1(Oc2ccc3[nH]nc(-c4cc(N5CCC(COC6CCC7(CC6)CN(c6ccc8c(c6F)CN(C6CCC(=O)NC6=O)C8=O)C7)CC5)ncn4)c3c2)CC1 (stereo not shown) [Compound 372, 3-(4-fluoro-5-{7-[(1-{6-[5-(1-methylcyclopropoxy)-1H-indazol-3-yl]pyrimidin-4-yl}piperidin-4-yl)methoxy]-2-azaspiro[3.5]nonan-2-yl}-1-oxo-2,3-dihydro-1H-isoindol-2-yl)piperidine-2,6-dione] | < 10 nM | 50 to 70% | – | – | –
7 | CC1(Oc2ccc3n[nH]c(-c4cc(N5CCN(C[C@H]6CC[C@H](OC7CCN(c8ccc9c(c8F)CN(C8CCC(=O)NC8=O)C9=O)CC7)CC6)CC5)ncn4)c3c2)CC1 (stereo partly shown) [Compound 234, 3-[4-fluoro-5-[4-[4-[[4-[6-[5-(1-methylcyclopropoxy)-2H-indazol-3-yl]pyrimidin-4-yl]piperazin-1-yl]methyl]cyclohexoxy]-1-piperidyl]-1-oxo-isoindolin-2-yl]piperidine-2,6-dione] | < 10 nM | 50 to 70% | – | – | –
8 | CC1(Oc2ccc3n[nH]c(-c4cc(N5CCC(O[C@H]6CC[C@H](OC7CCN(c8cc9c(cc8F)C(=O)N(C8CCC(=O)NC8=O)C9)CC7)CC6)CC5)ncn4)c3c2)CC1 (stereo partly shown) [Compound 244, 3-[6-fluoro-1-oxo-5-(4-{[(1r,4r)-4-[(1-{6-[5-(1-methylcyclopropoxy)-2H-indazol-3-yl]pyrimidin-4-yl}piperidin-4-yl)oxy]cyclohexyl]oxy}piperidin-1-yl)-2,3-dihydro-1H-isoindol-2-yl]piperidine-2,6-dione] | < 10 nM | 50 to 70% | – | – | –
9 | CC1(Oc2cc3c(-c4cc(N5CCC(CN6CCN(CC7(F)CCN(c8ccc9c(c8F)CN(C8CCC(=O)NC8=O)C9=O)CC7)CC6)CC5)ncn4)[nH]nc3cc2F)CC1 (stereo not shown) [Compound 229, 3-{4-fluoro-5-[4-fluoro-4-({4-[(1-{6-[6-fluoro-5-(1-methylcyclopropoxy)-2H-indazol-3-yl]pyrimidin-4-yl}piperidin-4-yl)methyl]piperazin-1-yl}methyl)piperidin-1-yl]-1-oxo-2,3-dihydro-1H-isoindol-2-yl}piperidine-2,6-dione] | < 10 nM | 50 to 70% | – | – | –
10 | CC1(Oc2ccc3n[nH]c(-c4cc(N5CCN(C[C@H]6CO[C@H](CN7CCN(c8ccc9c(c8F)CN(C8CCC(=O)NC8=O)C9=O)CC7)CO6)CC5)ncn4)c3c2)CC1 (stereo partly shown) [Compound 296, 3-[4-fluoro-5-(4-{[(2r,5s)-5-[(4-{6-[5-(1-methylcyclopropoxy)-2H-indazol-3-yl]pyrimidin-4-yl}piperazin-1-yl)methyl]-1,4-dioxan-2-yl]methyl}piperazin-1-yl)-1-oxo-2,3-dihydro-1H-isoindol-2-yl]piperidine-2,6-dione] | – | – | 50 to 70% | < 10 nM | –
11 | CC1(Oc2cc3c(-c4cc(N5CCC(CN6CCN(CC7CCN(c8ccc9c(c8)C(=O)N(C8CCC(=O)NC8=O)C9=O)CC7)CC6)CC5)ncn4)n[nH]c3cn2)CC1 (stereo not shown) [Compound 178, 2-(2,6-dioxo-3-piperidyl)-5-[4-[[4-[[1-[6-[5-(1-methylcyclopropoxy)-1H-pyrazolo[3,4-c]pyridin-3-yl]pyrimidin-4-yl]-4-piperidyl]methyl]piperazin-1-yl]methyl]-1-piperidyl]isoindoline-1,3-dione] | – | – | – | – | Dmax [1]: ≥ 70%; DC50 [2]: < 10 nM
12 | CC1(Oc2cc3c(-c4cc(N5CCN(CC6(F)CCN(CC7CCN(c8cc9c(cc8F)C(=O)N(C8CCC(=O)NC8=O)C9)CC7)CC6)CC5)ncn4)[nH]nc3cc2F)CC1 (stereo not shown) [Compound 195, 3-[6-fluoro-5-[4-[[4-fluoro-4-[[4-[6-[6-fluoro-5-(1-methylcyclopropoxy)-2H-indazol-3-yl]pyrimidin-4-yl]piperazin-1-yl]methyl]-1-piperidyl]methyl]-1-piperidyl]-1-oxo-isoindolin-2-yl]piperidine-2,6-dione] | – | – | – | – | Dmax [1]: ≥ 70%; DC50 [2]: < 10 nM
13 | CC1(Oc2ccc3[nH]nc(-c4cc(N5CCN(CCN6CCC7(CN(c8ccc9c(c8F)CN(C8CCC(=O)NC8=O)C9=O)C7)C(F)(F)C6)CC5)ncn4)c3c2)CC1 (stereo not shown) [Compound 336, 3-(5-{5,5-difluoro-7-[2-(4-{6-[5-(1-methylcyclopropoxy)-1H-indazol-3-yl]pyrimidin-4-yl}piperazin-1-yl)ethyl]-2,7-diazaspiro[3.5]nonan-2-yl}-4-fluoro-1-oxo-2,3-dihydro-1H-isoindol-2-yl)piperidine-2,6-dione] | – | – | 50 to 70% | < 10 nM | –
14 | COc1c(N2CCC(CN3CCN(CC4CCN(c5cc(-c6n[nH]c7cc(F)c(OC8(C)CC8)cc67)ncn5)CC4)CC3(C)C)CC2)ccc2c1CN(C1CCC(=O)NC1=O)C2=O (stereo not shown) [Compound 279, 3-{5-[4-({4-[(1-{6-[6-fluoro-5-(1-methylcyclopropoxy)-1H-indazol-3-yl]pyrimidin-4-yl}piperidin-4-yl)methyl]-2,2-dimethylpiperazin-1-yl}methyl)piperidin-1-yl]-4-methoxy-1-oxo-2,3-dihydro-1H-isoindol-2-yl}piperidine-2,6-dione] | – | – | ≥ 70% | < 10 nM | –
